In PubChem BioAssay (NCI):
Several values for one entry are separate records, joined by “and”; a condition that tells them apart may be missing. Equal values may be shown once.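 How tested: cells in 96-well plates exposed to compound for 48 hours at five concentrations. Abbreviation: GI50, concentration required for 50% inhibition of growth. TGI marks complete inhibition of growth.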

Experiments:
Assay in all cases: DTP human tumour cell line panel, 48 h
HCC-2998 colon = tested on: HCC-2998 colon
786-0 renal = tested on: 786-0 renal
OVCAR-4 ovarian = tested on: OVCAR-4 ovarian
SW-620 colon = tested on: SW-620 colon
SR leukemia = tested on: SR leukemia
ACHN renal = tested on: ACHN renal
K-562 leukemia = tested on: K-562 leukemia
MALME-3M melanoma = tested on: MALME-3M melanoma
HCT-15 colon = tested on: HCT-15 colon
MDA-MB-231 breast = tested on: MDA-MB-231 breast

## CC1=C(/C=C/C(C)=C\C=C\C(C)=C\C(=O)Nc2ccc3c(c2)OCO3)C(C)(C)CCC1
HCC-2998 colon
  GI50: 3.97 µM
  TGI: 36.5 µM
786-0 renal
  GI50: 40.2 µM
  TGI: > 100 µM
OVCAR-4 ovarian
  GI50: 21 µM
  TGI: > 100 µM
SW-620 colon
  GI50: > 100 µM
  TGI: > 100 µM
SR leukemia
  GI50: 11.3 µM
  TGI: 47.7 µM
ACHN renal
  GI50: 89.1 µM
  TGI: > 100 µM
K-562 leukemia
  GI50: 7.56 µM
  TGI: > 100 µM
MALME-3M melanoma
  GI50: 7.93 µM
  TGI: > 100 µM
HCT-15 colon
  GI50: 36.4 µM
  TGI: > 100 µM
MDA-MB-231 breast
  GI50: > 100 µM
  TGI: > 100 µM

## CN(C)CCCn1c2c(c3cnccc3c1=O)C(=O)c1ccccc1-2
HCC-2998 colon
  GI50: 0.777 µM
  TGI: 2.6 µM
786-0 renal
  GI50: 0.361 µM
  TGI: 13.6 µM
OVCAR-4 ovarian
  GI50: 0.601 µM
  TGI: 8.89 µM
SW-620 colon
  GI50: 0.209 µM
  TGI: 10.9 µM
SR leukemia
  GI50: 0.095 µM
  TGI: 0.793 µM
ACHN renal
  GI50: 0.145 µM
  TGI: 3.63 µM
K-562 leukemia
  GI50: 0.474 µM
  TGI: 12.5 µM
MALME-3M melanoma
  GI50: 0.287 µM
  TGI: 1.05 µM
HCT-15 colon
  GI50: 0.318 µM
  TGI: 10.2 µM
MDA-MB-231 breast
  GI50: 0.623 µM
  TGI: 3.1 µM

## Nc1ccc2c(SCCSc3c4ccccc4nc4cc(N)ccc34)c3ccccc3nc2c1
786-0 renal
  TGI: > 100 µM
OVCAR-4 ovarian
  TGI: > 100 µM
SW-620 colon
  TGI: > 100 µM
SR leukemia
  TGI: > 100 µM
ACHN renal
  TGI: > 100 µM
K-562 leukemia
  TGI: > 100 µM
MALME-3M melanoma
  TGI: > 100 µM
HCT-15 colon
  TGI: > 100 µM
MDA-MB-231 breast
  TGI: > 100 µM

## Nc1ccccc1C#C/C=C\C#Cc1ccccc1C(F)(F)F
786-0 renal
  GI50: 0.545 µM
  TGI: 16.7 µM
SW-620 colon
  GI50: 1.5 µM
  TGI: 41 µM
SR leukemia
  GI50: 0.247 µM
  TGI: 0.691 µM
ACHN renal
  GI50: 0.323 µM
  TGI: 15.8 µM
K-562 leukemia
  GI50: 1.07 µM
  TGI: 3.74 µM
HCT-15 colon
  GI50: 1.13 µM
  TGI: 12.5 µM
MDA-MB-231 breast
  GI50: 0.274 µM
  TGI: 2.73 µM

## N#Cc1c(C(=O)c2ccccc2)cnn1-c1ccccc1
HCC-2998 colon
  GI50: > 25 µM
  TGI: > 25 µM
786-0 renal
  GI50: > 25 µM
  TGI: > 25 µM
OVCAR-4 ovarian
  GI50: > 25 µM
  TGI: > 25 µM
SW-620 colon
  GI50: > 25 µM
  TGI: > 25 µM
SR leukemia
  GI50: > 25 µM
  TGI: > 25 µM
ACHN renal
  GI50: > 25 µM
  TGI: > 25 µM
K-562 leukemia
  GI50: > 25 µM
  TGI: > 25 µM
MALME-3M melanoma
  GI50: > 25 µM
  TGI: > 25 µM
HCT-15 colon
  GI50: > 25 µM
  TGI: > 25 µM
MDA-MB-231 breast
  GI50: > 25 µM
  TGI: > 25 µM

## O=c1cccc(C#CC#C[C@H]2O[C@@H]2CO)o1
HCC-2998 colon
  GI50: 0.788 µM
  TGI: 2.19 µM
786-0 renal
  GI50: 0.637 µM
  TGI: 1.54 µM
SW-620 colon
  GI50: 0.238 µM
  TGI: 0.596 µM
SR leukemia
  GI50: 0.24 µM
  TGI: > 100 µM
ACHN renal
  GI50: 0.322 µM
  TGI: 0.985 µM
K-562 leukemia
  GI50: 0.182 µM
  TGI: > 100 µM
HCT-15 colon
  GI50: 0.353 µM
  TGI: 1.29 µM
MDA-MB-231 breast
  GI50: 0.419 µM
  TGI: 1.02 µM

## COc1c(O)c2c(c3cc(C(=O)N4CCc5c4c(O)c(OC)c4[nH]c(C(=O)N6CC7CC78C6=CC(=O)c6[nH]cc(C)c68)cc54)[nH]c13)CCN2C(N)=O (stereo not given)
HCC-2998 colon
  GI50: 0.173 µM
  TGI: 0.174 µM and 1.02 µM
786-0 renal
  GI50: 0.0293 µM
OVCAR-4 ovarian
  GI50: 420 nM and 0.0198 µg/mL
  TGI: 2.91 µM and 0.0729 µg/mL
SW-620 colon
  TGI: 3.46 nM and 456 nM and 0.0038 µg/mL
SR leukemia
  TGI: > 100 µM and 0.0804 µg/mL
ACHN renal
  TGI: 0.0142 µM
K-562 leukemia
  TGI: 21.8 µM and 0.0594 µg/mL
MALME-3M melanoma
  TGI: 5.23 nM and 1.02 µM and 0.00419 µg/mL
HCT-15 colon
  GI50: 0.157 µM
MDA-MB-231 breast
  TGI: > 100 µM

## C=C1[C@@H](C)[C@H]2[C@H](Cc3ccccc3)NC(=O)[C@]23OC(=O)/C=C/[C@H](O)CCC[C@@H](C)C/C=C/[C@H]3[C@@H]1O
HCC-2998 colon
  TGI: > 100 µM
786-0 renal
  TGI: > 100 µM
OVCAR-4 ovarian
  TGI: > 100 µM
SW-620 colon
  TGI: > 100 µM
SR leukemia
  TGI: > 100 µM
ACHN renal
  TGI: > 57.4 µM
K-562 leukemia
  TGI: > 100 µM
MALME-3M melanoma
  TGI: > 89 µM
HCT-15 colon
  TGI: 93.2 µM
MDA-MB-231 breast
  TGI: > 100 µM

## C1CC[N-]CC1.C1CC[N-]CC1.C1CC[N-]CC1.C1CC[N-]CC1.[Cl][Rh][Cl]
HCC-2998 colon
  GI50: 8.17 µM
  TGI: 30.3 µM
786-0 renal
  GI50: 41.4 µM
  TGI: > 100 µM
OVCAR-4 ovarian
  GI50: 5.43 µM
  TGI: > 100 µM
SW-620 colon
  GI50: 6.12 µM
  TGI: > 100 µM
SR leukemia
  GI50: 4.75 µM
  TGI: 42 µM
ACHN renal
  GI50: 50.1 µM
  TGI: > 100 µM
MALME-3M melanoma
  GI50: 6.64 µM
  TGI: 43.4 µM
HCT-15 colon
  GI50: 41.2 µM
  TGI: > 100 µM
MDA-MB-231 breast
  GI50: 21.5 µM
  TGI: > 100 µM

## O=C(O)c1cc2ccccc2c(O)c1O
HCC-2998 colon
  TGI: 35.8 µM
786-0 renal
  TGI: 27.6 µM
OVCAR-4 ovarian
  TGI: 35 µM
SW-620 colon
  TGI: 34.8 µM
SR leukemia
  TGI: > 79 µM
ACHN renal
  TGI: 31.8 µM
K-562 leukemia
  TGI: > 58.8 µM
MALME-3M melanoma
  TGI: 3.78 µM
HCT-15 colon
  TGI: 42.6 µM
MDA-MB-231 breast
  TGI: 32.7 µM

## Cc1ccc(C(=O)Nc2ccc(CN3CCN(C)CC3)c(C(F)(F)F)c2)cc1C#Cc1cnc(N)cc1C#N
HCC-2998 colon
  GI50: 0.407 µM
  TGI: 1.17 µM
786-0 renal
  GI50: 0.162 µM
  TGI: 0.826 µM
OVCAR-4 ovarian
  GI50: 0.0998 µM
  TGI: 1.42 µM
SW-620 colon
  GI50: 0.33 µM
  TGI: 1.15 µM
SR leukemia
  GI50: 0.162 µM
  TGI: 1.23 µM
ACHN renal
  GI50: 0.074 µM
  TGI: 0.555 µM
K-562 leukemia
  GI50: 0.005 µM
  TGI: 6.12 µM
MALME-3M melanoma
  GI50: 0.0276 µM
  TGI: 0.187 µM
HCT-15 colon
  GI50: 0.13 µM
  TGI: 0.762 µM
MDA-MB-231 breast
  GI50: 0.112 µM
  TGI: 0.621 µM

## O=C1CCC(Cc2ccc(Cl)cc2Cl)C(=O)N1 (stereo not given)
786-0 renal
  TGI: > 100 µM
OVCAR-4 ovarian
  TGI: > 100 µM
SW-620 colon
  TGI: > 100 µM
SR leukemia
  TGI: > 100 µM
ACHN renal
  TGI: > 100 µM
K-562 leukemia
  TGI: > 100 µM
MALME-3M melanoma
  TGI: > 100 µM
HCT-15 colon
  TGI: > 100 µM
MDA-MB-231 breast
  TGI: > 100 µM

## O=C(O)C(=Cc1ccnc2ccccc12)C(=O)O
786-0 renal
  TGI: > 100 µM
SW-620 colon
  TGI: > 100 µM
SR leukemia
  TGI: > 100 µM
ACHN renal
  TGI: > 100 µM
K-562 leukemia
  TGI: > 100 µM
MALME-3M melanoma
  TGI: > 100 µM
HCT-15 colon
  TGI: > 100 µM
MDA-MB-231 breast
  TGI: > 100 µM

## O=Cc1c(-c2cc(O)ccc2O)nc2sccn12
HCC-2998 colon
  GI50: 17.3 µM
  TGI: 33.6 µM
786-0 renal
  GI50: 3.83 µM
  TGI: 15.9 µM
OVCAR-4 ovarian
  GI50: 14.5 µM
  TGI: 32.9 µM
SW-620 colon
  GI50: 25.3 µM
  TGI: > 100 µM
SR leukemia
  GI50: 0.64 µM
  TGI: 3.42 µM
ACHN renal
  GI50: 9.85 µM
  TGI: 22.6 µM
MALME-3M melanoma
  GI50: 10.9 µM
  TGI: 25 µM
HCT-15 colon
  GI50: 12.5 µM
  TGI: 39.3 µM
MDA-MB-231 breast
  GI50: 12 µM
  TGI: 31.4 µM

## CCN(CC)c1ccc(/C=C\c2cc(C)c3cc(C)ccc3n2)cc1
HCC-2998 colon
  GI50: 4.44 µM
  TGI: 23.8 µM
786-0 renal
  GI50: 3.98 µM
  TGI: > 100 µM
OVCAR-4 ovarian
  GI50: 9.63 µM
  TGI: > 100 µM
SW-620 colon
  GI50: 3.52 µM
  TGI: > 100 µM
SR leukemia
  GI50: 3.41 µM
  TGI: > 100 µM
ACHN renal
  GI50: 6.23 µM
  TGI: > 100 µM
MALME-3M melanoma
  GI50: 4.68 µM
  TGI: > 100 µM
HCT-15 colon
  GI50: 2.32 µM
  TGI: > 100 µM
MDA-MB-231 breast
  GI50: 16.2 µM
  TGI: > 100 µM

## Oc1ccc(Cc2ccc(O)c3ncccc23)c2cccnc12
HCC-2998 colon
  GI50: 0.524 µM
  TGI: > 100 µM
786-0 renal
  GI50: 0.193 µM
  TGI: > 100 µM
OVCAR-4 ovarian
  GI50: 0.371 µM
  TGI: > 100 µM
SW-620 colon
  GI50: 0.0417 µM
  TGI: > 100 µM
ACHN renal
  GI50: 0.0367 µM
  TGI: > 100 µM
K-562 leukemia
  GI50: 0.0425 µM
  TGI: > 100 µM
MALME-3M melanoma
  GI50: 0.0497 µM
  TGI: > 100 µM
HCT-15 colon
  GI50: 0.0712 µM
  TGI: > 100 µM
MDA-MB-231 breast
  GI50: 0.0487 µM
  TGI: > 100 µM
